Where “and” joins values, the source holds several entries; their conditions need not be identical. Equal entries are not always repeated.
Tests used:
[1] = tested on: distraction osteogenesis; settings: cited from earlier work
[2] = tested on: human (MG-63) osteoblastic cells; settings: Peter et al 2004; cited from earlier work
[3] = ZA elution from porous tantalum implants in saline, assayed by UV spectrophotometry; assay type: physicochemical; settings: for percent of the ZA released: HA-coated implant dosed with 0.05 mg ZA
Text: Assay of ZA Elution. Assays of ZA in solution were achieved using UV spectrophotometry. Bisphosphonates on their own lack a detectable chromophore, making them difficult to assay by simple conventional analytical methods. However, the metal chelating properties of bisphosphonates are well known. When bisphosphonates complex with certain metal ions, a chromophore with suitable. UV activity for spectrophotometric analysis is created (Ostovic D, Stelmach C, Hulshizer B. Pharmaceutical Research. 10:470-472, 1993). The method for assaying ZA in aqueous-based solutions is based on the formation of a ZA complex with iron (III) ions (Kuljanin J, Jankovic I, Nedeljkovic J, Prstojevic D, Marinkovic V. Journal of Pharmaceutical and Biomedical Analysis. 28:1215-1220, 2002). Of the three components in the prescription drug Zometa™ (ZA, mannitol, and sodium citrate), only ZA forms a complex with iron (III) ions. A standard solution of iron (III) chloride in perchloric acid is added to known concentrations of Zometa™ and the absorbance is measured at 290 nm to create a calibration curve. A highly acidic medium is needed to prevent the hydrolysis of the iron (III) ions. Aliquots of the soak solution from the Zometa™-coated implants can be analyzed by adding the standard iron (III) chloride solution to the soak solution and measuring the absorbance at 290 nm. By measuring the absorbance, the concentration of the sample can be calculated and thus the mass of the drug released from the implant for a given time period can be determined.
Four porous tantalum implants with and without HA coating were deposited with 0.05 mg of ZA as described. For each implant group, elution characteristics were ascertained by immersing each implant in a test tube containing 5 ml of 0.9% saline at […]. At mutiple test intervals (1 min, 3 min, 5 min, 10 min, 15 min, 30 min, 1 hr, 6 hrs, 12 hrs, 1 day, 3 days, 7 days, 14 days, 21 days, 42 days, 84 days, and 98 days), the implant was removed from the test tube, the saline was thoroughly mixed, and aliquots were removed for ZA assays using UV spectrophotometry. After each time interval for each implant, the implant was placed in a test tube with fresh replacement of 5 ml of saline. This elution model avoided build up of boundary layers and more closely resembled a dynamic system. The 84-day assay time corresponded to the 12 week length of the in vivo implant studies. Assays ceased once the total amount of ZA was released.

[4] = tested on: canine ulnar intramedullary implant model; assay: Canine ulnar intramedullary implant model, single intravenous dose of ZA, porous tantalum rods implanted for 6 weeks; assay type: in vivo
Experimental: The hypothesis that bisphosphonates have a positive effect on net bone growth, particularly into porous implants, was first confirmed by conducting a canine ulnar intramedullary implant model in which porous tantalum rods were implanted for 6 weeks. (Bobyn J D, Tanzer M, Harvey EJ, Krygier JJ, Little DG. J Bone Joint Surg (Br), 2005) Immediately after surgery, seven test animals with 14 ulnar implants were administered a single intravenous dose of 0.1 mg/kg ZA (Novartis Pharma A G, Basel, Switzerland). Because of the systemic exposure of test animals to ZA it was necessary to utilize external control data from a prior experiment (Tanzer M, Kantor S, Bobyn J D. J Arthrop 19:195-199, 2002) for comparisons of bone ingrowth. The mean extent of bone ingrowth was 6.6% for the control implants and 12.2% for the ZA-treated implants, a relative difference of 85% that was statistically significant.

[5] = tested on: murine (MC3T3) osteoblastic cells; settings: Peter et al 2004; cited from earlier work
[6] = tested on: canine ulnar intramedullary implant model; assay: Canine ulnar intramedullary implant model, HA coated porous tantalum implants dosed with ZA (local delivery), 12 weeks, quantitative histology; assay type: in vivo, dog
Text: In Vivo Studies. The previously described canine ulnar intramedullary implant model was utilized (study approved by institutional review board) (Bobyn J D, Tanzer M, Harvey EJ, Krygier JJ, Little DG. J Bone Joint Surg (Br), In press, 2005). The surgical procedure involved anesthetizing the dog with a general anesthesia and under sterile conditions exposing the proximal ulna. A two-centimeter incision was made over the olecranon process and the triceps tendon was split by sharp dissection down to bone. Under fluoroscopic guidance, a 5.0 mm drill was oriented along the long axis of the ulna and in line with the intramedullary canal. A 5.5 cm long hole was drilled under fluoroscopy to ensure the proper orientation of the drill hole and to prevent cortical penetration. The porous implant was then tapped down the intramedullary canal of the ulna with a punch and mallet. The implant was slightly countersunk to avoid postoperative irritation of the overlying triceps tendon. The wound was irrigated and closed in a standard fashion. The procedure was repeated on the contralateral side. Positioning of the implants inevitably varied somewhat in terms of depth of insertion within the canal and spatial orientation within the canal. […] Each dog received either two control HA coated implants without ZA or two HA coated implants dosed with 0.05 mg ZA. Five control dogs and four with ZA-dosed implants were studied at 12 weeks. This protocol was utilized instead of one with a control and a ZA-dosed implant in each animal because it avoided the possibility of systemic absorption of ZA from one side and influence of a control implant on the other side.
Histological examination. After sacrifice, the ulnae were harvested, stripped of soft tissue, radiographed and processed for undecalcified hard-section histology (FIG. 6). This involved dehydration in ascending solutions of ethanol, defatting in ether and acetone, and embedding in methylmethacrylate. Each implant was cut transversely into 6 or 7 sections at 7-8 mm intervals. The sections were radiographed and polished, sputter coated with gold-palladium, and imaged with backscattered scanning electron microscopy. For each section, computerized image analysis based on grey level discrimination was used to identify bone and implant and to generate quantitative information on the extent of bone ingrowth, defined as the percentage of the available porosity that was filled with new bone. Also tabulated in each section was the number and size of the individual islands of bone within the implant pores. In sections cut through the ulnar diaphysis, where delineation of the endosteal cortex was clearly evident, the total area of peri-implant bone contained within the intramedullary canal was also tabulated. In these calculations the implant area (and bone within) was not included. For each section, the peri-implant bone was expressed as a percentage of the total peri-implant area within the intramedullary canal (not including the implant).
Statistical analysis. The quantitative histological data were statistically analyzed using multiple two-level hierarchical models. At the first level of the model, the set of results from the limbs of each dog was assumed to follow a normal distribution with dog-specific means and a global variance parameter. At the second level of the model, the means from each dog in each group (control, ZA-dosed) from the first level followed a second normal distribution, with the mean representing the overall mean for the treatment or control groups and the variance representing the variability within the group. A similar statistical model was also run where the results for each dog were allowed to vary with the distance (section level) along the ulna. […] The mean values and differences between means for control and ZA-dosed implants were estimated with 95% confidence intervals (CI).

[7] = tested on: bone resorption; settings: cited from earlier work; for potency at inhibiting bone resorption relative to second generation bisphosphonates (in words): third generation bisphosphonates which contain a tertiary nitrogen
[8] = tested on: canine ulnar intramedullary implant model; assay: Canine ulnar intramedullary implant model, HA coated porous tantalum implants dosed with ZA (local delivery), 12 weeks, quantitative histology; assay type: in vivo, dog; settings: total ZA doses of 0.2 mg and 0.4 mg, relative to 0.05 mg
[9] = tested on: regenerate bone / callus; settings: Smith et al 2003; net bone accumulation due to increased retention of callus; cited from earlier work
[10] = tested on: alveolar bone resorption; settings: local application following periodontal surgery in rats; cited from earlier work
[11] = tested on: soft tissue formation at implant site; settings: single application via a sponge to an implant site, rat; cited from earlier work
[12] = tested on: knee prostheses migration; settings: early postoperative oral regimen, radiostereometry; cited from earlier work
[13] = individual ZA dogs 1-4, 0.05 mg ZA, 12 weeks

Q: For O=P(O)(O)C(O)(Cn1ccnc1)P(=O)(O)O [ZA, zoledronic acid], which “effect on osteopenia and regenerate bone” value ([1]; one or two doses of ZA) is on record?
A: abolished osteopenia and increased regenerate volume, mineralization and strength

Q: What about the “concentration below which ZA can be considered safe for cellular activity” value [2] of the same molecule?
A: below 10 μM

Q: And the “percent of the ZA released” value ([3]; 0.9% saline, after soaking for 6 weeks)?
A: ~95%

Q: And the “percent of the ZA released” value ([3]; 0.9% saline, within 1 hour)?
A: about 65%

Q: And the “release of zoledronic acid in saline (in words, FIG. 7)” value ([3]; implants without HA coating compared to those with HA coating, 0.05 mg)?
A: rapid and complete release

Q: What about the “time within which all of the ZA was released” value ([3]; non-HA coated porous tantalum implant dosed with 0.05 mg ZA, 0.9% saline) of the same molecule?
A: ≤ 1 h

Q: And the “average bone island size larger in the ZA-treated group” value ([4]; 0.1 mg/kg ZA intravenous)?
A: 69%

Q: What about the “relative difference in bone ingrowth, ZA-treated vs external control implants” value ([4]; 0.1 mg/kg ZA intravenous, statistically significant) of the same molecule?
A: 85%

Q: And the “mean extent of bone ingrowth” value ([4]; single intravenous dose of 0.1 mg/kg ZA, 14 ulnar implants, own earlier published study)?
A: 12.2%

Q: And the “concentration below which ZA can be considered safe for cellular activity” value [5]?
A: below 10 μM

Q: What about the “more net bone growth into ZA-dosed implants compared with controls, relative” value ([6]; 0.05 mg ZA, 12 weeks) of the same molecule?
A: 58%

Q: And the “peri-implant bone around ZA-dosed implants relative to controls” value ([6]; 0.05 mg ZA, 12 weeks)?
A: 2.3 times

Q: And the “peri-implant bone on contact radiographs, ZA-dosed vs control implants (in words)” value ([6]; 0.05 mg ZA, 12 weeks)?
A: almost always more dense and/or abundant

Q: And the “relative difference in the size of the bone islands, ZA-dosed vs control” value ([6]; 0.05 mg ZA, 12 weeks)?
A: 71%

Q: What about the “Bone Island Size, overall Mean (95% CI)” value ([6]; 0.05 mg ZA, 12 weeks, 54 sections, 8 implants) of the same molecule?
A: 0.023 (0.016 to 0.031) mm^2

Q: And the “bone islands larger in the ZA-dosed implants than in controls, difference” value ([6]; 0.05 mg ZA, 12 weeks, 95% CI 0.001 to 0.017)?
A: 0.009 mm^2

Q: What about the “difference of the means of peri-implant bone filling, ZA-dosed vs control” value ([6]; 0.05 mg ZA, 12 weeks, 95% CI 3.3 to 33.7) of the same molecule?
A: 18.4%

Q: And the “difference in mean extent of bone ingrowth, ZA-dosed vs control” value ([6]; 0.05 mg ZA, 12 weeks, 95% CI 3.5 to 11.1)?
A: 7.3%

Q: And the “histologic evidence of cellular toxicity” value ([6]; 0.05 mg dose)?
A: without any histologic evidence of cellular toxicity

Q: And the “Peri-implant bone relative to intramedullary canal size, overall Mean (95% CI)” value ([6]; HA coated implants dosed with 0.05 mg ZA, 12 weeks, 24 diaphyseal sections, 8 implants)?
A: 32.2 (21.7 to 43.0) %

Q: What about the “Mean extent of bone ingrowth, overall Mean (95% CI)” value ([6]; HA coated implants dosed with 0.05 mg ZA, 12 weeks, 54 sections, 8 implants) of the same molecule?
A: 19.8 (16.9 to 22.6) %

Q: And the “# Bone Islands, by dog” value [6, 13]?
A: 109 and 155 and 206 and 131

Q: And the “Bone Island Size, by dog” value [6, 13]?
A: 0.033 mm^2 and 0.016 mm^2 (2×) and 0.028 mm^2

Q: What about the “Mean extent of bone ingrowth, by dog” value ([6]; individual ZA dogs 1-4, HA coated implants dosed with 0.05 mg ZA, 12 weeks) of the same molecule?
A: 16.0% and 20.3% (2×) and 22.6%

Q: What about the “Peri-implant bone relative to intramedullary canal size, by dog” value ([6]; individual ZA dogs 1-4, HA coated implants dosed with 0.05 mg ZA, 12 weeks, diaphyseal sections) of the same molecule?
A: 19.8% and 38.5% and 30.4% and 40.0%

Q: And the “bone formation on increasing the dosage of ZA” value ([6]; total ZA doses of 0.2 mg and 0.4 mg, relative to 0.05 mg)?
A: more bone formation around and within the implant

Q: What about the “complications or systemic illness related to the ZA administration” value ([6]; two HA coated implants dosed with 0.05 mg ZA per dog, 12 weeks) of the same molecule?
A: No dogs had any complications or systemic illness

Q: And the “potency relative to alendronate” value ([7]; Green 2001, Li and Davis 2003)?
A: 250 times

Q: And the “potency relative to pamidronate” value ([7]; Green 2001, Li and Davis 2003)?
A: 100 times

Q: And the “potency at inhibiting bone resorption relative to second generation bisphosphonates (in words)” value [7]?
A: even more potent

Q: What about the “kind of the additional bone formed at higher doses” value [8] of the same molecule?
A: woven bone

Q: And the bone formation rate [9]?
A: reduced

Q: For NCCCC(O)(P(=O)(O)O)P(=O)(O)O [alendronate], which “effect on alveolar bone resorption” value [10] is on record?
A: reduce alveolar bone resorption

Q: And the “effect on soft tissue forming from resorptive remodeling due to repetitive implant motion” value [11]?
A: reduces the amount of soft tissue

Q: With O=P(O)(O)C(Cl)(Cl)P(=O)(O)O [clodronate] as the molecule, how does the “effect on migration of knee prostheses” value [12] read?
A: reduced migration of knee prostheses

Q: With CCCCCN(C)CCC(O)(P(=O)(O)O)P(=O)(O)O [ibandronate] as the molecule, how does the “potency at inhibiting bone resorption relative to second generation bisphosphonates (in words)” value [7] read?
A: even more potent

Q: Which “effect on disuse osteopenia and regenerate bone” value ([1]; single postoperative intravenous dose of pamidronate (3 mg/kg)) does the source give for NCCC(O)(P(=O)(O)O)P(=O)(O)O [pamidronate] here?
A: decreased the disuse osteopenia normally associated with lengthening and increased the amount and density of the regenerate bone

Q: Which “potency at inhibiting bone resorption relative to second generation bisphosphonates (in words)” value [7] does the source give for O=P(O)(O)C(O)(Cc1cccnc1)P(=O)(O)O [risendronate] here?
A: even more potent
